According to patent US20260070945A1, “MACROCYCLIC IMMUNOMODULATORS” (Bristol-Myers Squibb Company, priority 2022, published 2026):
*1 amine or outer side, *2 acyl side, *3 side chain or, on linkers, in order; H or OH if unused. Where a SMILES comes first, the peptide text is derived from it. Bridges are numbered along the chain shown (N, C = ends). [ ]: non-standard residue; d: D form. The star is where a group is joined. ξ: configuration not given here. Phe(3-CF3) = N[C@@H](Cc1cccc(C(F)(F)F)c1)C(=O)O; Phe(4-COOH) = N[C@@H](Cc1ccc(C(=O)O)cc1)C(=O)O; Bip = N[C@@H](Cc1ccc(-c2ccccc2)cc1)C(=O)O; Phe(3-Me) = Cc1cccc(C[C@H](N)C(=O)O)c1; Phe(4-F) = N[C@@H](Cc1ccc(F)cc1)C(=O)O; γGlu = O=C(O)[C@H](CCC(=O)[*:2])N[*:1]; Val(3-OH) = CC(C)(O)[C@H](N)C(=O)O; 3Pal = N[C@@H](Cc1cccnc1)C(=O)O; 4Pal = N[C@@H](Cc1ccncc1)C(=O)O; 3Thi = N[C@@H](Cc1ccsc1)C(=O)O; Cha = N[C@@H](CC1CCCCC1)C(=O)O; Cit = NC(=O)NCCC[C@H](N)C(=O)O; Ile(3ξ) = CCC(C)[C@H](N)C(=O)O; Thr(3ξ) = CC(O)[C@H](N)C(=O)O; 12Ado = NCCCCCCCCCCCC(=O)O; Carboxymethyl = O=C(O)C*; NMeA = CN[C@@H](C)C(=O)O; Orn = NCCC[C@H](N)C(=O)O; Aun = NCCCCCCCCCCC(=O)O; Dab = NCC[C@H](N)C(=O)O; AEEA = NCCOCCOCC(=O)O

target: T1, PD-1/PD-L1 interaction (PE-labeled human PD-L1-Ig binding to Jurkat cell line over-expressing human PD-1) (Homo sapiens, UniProt Q15116); experiment: Jurkat-PD-1 Cell Binding High-Content Screening Assay (CBA); conditions: Jurkat-hPD-1 cells, PE-labeled PD-L1-Ig 20 nM final; read-out: Jurkat HPD1 PDL1 IC50
T1 construct: expressed in transfected cells; host or cells: Jurkat
Method in brief: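 In this imaging assay, cells in 10% FCS medium see compound for 2 h at 37 °C and then labeled ligand at 20 nM final for 1 h. Paraformaldehyde fixation, Hoechst 33342 staining and dPBS washes precede image capture.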

T1 sequence (Q15116 25-288): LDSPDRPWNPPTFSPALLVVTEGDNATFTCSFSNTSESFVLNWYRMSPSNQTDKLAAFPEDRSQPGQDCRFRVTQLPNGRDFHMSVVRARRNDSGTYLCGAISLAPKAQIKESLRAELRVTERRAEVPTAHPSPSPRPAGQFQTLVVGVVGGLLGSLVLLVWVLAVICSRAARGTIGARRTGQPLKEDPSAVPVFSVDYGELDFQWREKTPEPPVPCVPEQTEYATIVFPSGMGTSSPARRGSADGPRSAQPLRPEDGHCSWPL

SMILES | IC50 [nM]
Cc1cccc(C[C@@H]2NC(=O)[C@H](CC(=O)O)NC(=O)[C@H](Cc3ccc(OCC(=O)O)cc3)NC(=O)[C@H]([C@@H](C)O)NC(=O)CSC[C@@H](C(=O)N[C@@H](CCN)C(=O)NCCOCCOCC(=O)NCCCCCCCCCCC(=O)O)NC(=O)[C@H](CC(N)=O)NC(=O)[C@H](C(C)C)NC(=O)[C@H](CC3CCCCC3)NC(=O)[C@H](CCC(=O)O)NC(=O)[C@@H](CC(C)C)NC(=O)[C@H](C)N(C)C(=O)[C@H](Cc3ccc(OCC(=O)O)cc3)NC(=O)[C@H](Cc3ccc(-c4ccccc4)cc3)NC(=O)[C@H](Cc3ccc(OCC(=O)O)cc3)NC2=O)c1 [Example 1377] ({CH2CO}-TY(Carboxymethyl)D[Phe(3-Me)]Y(Carboxymethyl)[Bip]Y(Carboxymethyl)[NMeA][dL]E[Cha]VNC[Dab][AEEA][Aun]-OH; thioether N-14) | 31
Cc1cccc(C[C@@H]2NC(=O)[C@H](CC(=O)O)NC(=O)[C@H](Cc3ccc(C(=O)O)cc3)NC(=O)[C@H](Cc3cccnc3)NC(=O)CSC[C@@H](C(=O)N[C@@H](CCN)C(=O)NCCCCCCCCCCC(=O)O)NC(=O)[C@H](CO)NC(=O)[C@H](C(C)(C)O)NC(=O)[C@H](CC3CCCCC3)NC(=O)[C@H](CCN)NC(=O)[C@@H](CC(C)C)NC(=O)[C@H](C)N(C)C(=O)[C@H](Cc3ccc(OCC(=O)O)cc3)NC(=O)[C@H](Cc3ccc(-c4ccccc4)cc3)NC(=O)[C@H](Cc3ccc(OCC(=O)O)cc3)NC2=O)c1 [Example 1283] ({CH2CO}-[3Pal][Phe(4-COOH)]D[Phe(3-Me)]Y(Carboxymethyl)[Bip]Y(Carboxymethyl)[NMeA][dL][Dab][Cha][Val(3-OH)]SC[Dab][Aun]-OH; thioether N-14) | 15.9
CCC(C)[C@@H]1NC(=O)[C@H](Cc2ccc(-c3ccccc3)cc2)NC(=O)[C@H](C(C)C)NC(=O)[C@H](Cc2c[nH]c3ccccc23)NC(=O)[C@H](CC(=O)O)NC(=O)[C@H](Cc2ccc(OCC(=O)O)cc2)NC(=O)[C@H](Cc2ccncc2)NC(=O)CSC[C@@H](C(=O)NCCOCCOCC(=O)N[C@@H](CCCCN)C(=O)NCCCCCCCCCCC(=O)O)NC(=O)[C@H](CO)NC(=O)[C@H](C(C)C)NC(=O)[C@H](CC2CCCCC2)NC(=O)[C@H](CCN)NC(=O)[C@@H](CC(C)C)NC(=O)[C@H](C)N(C)C1=O (stereo partly drawn) [Example 2033] ({CH2CO}-[4Pal]Y(Carboxymethyl)DWV[Bip][Ile(3ξ)][NMeA][dL][Dab][Cha]VSC[AEEA]K[Aun]-OH; thioether N-14) | 19.2
Cc1cccc(C[C@@H]2NC(=O)[C@H](CC(=O)O)NC(=O)[C@H](Cc3ccc(OCC(=O)O)cc3)NC(=O)[C@H]([C@@H](C)O)NC(=O)CSC[C@@H](C(=O)N[C@@H](CCN)C(=O)NCCOCCOCC(=O)NCCCCCCCCCCC(=O)O)NC(=O)[C@H](CCC(=O)O)NC(=O)[C@H](C(C)(C)O)NC(=O)[C@H](CC3CCCCC3)NC(=O)[C@H](CCN)NC(=O)[C@@H](CC(C)C)NC(=O)[C@H](C)N(C)C(=O)[C@H](Cc3ccc(OCC(=O)O)cc3)NC(=O)[C@H](Cc3ccc(-c4ccccc4)cc3)NC(=O)[C@H](Cc3ccc(OCC(=O)O)cc3)NC2=O)c1 [Example 1408] ({CH2CO}-TY(Carboxymethyl)D[Phe(3-Me)]Y(Carboxymethyl)[Bip]Y(Carboxymethyl)[NMeA][dL][Dab][Cha][Val(3-OH)]EC[Dab][AEEA][Aun]-OH; thioether N-14) | 28.9
CCC(C)[C@@H]1NC(=O)[C@H](Cc2ccc(-c3ccccc3)cc2)NC(=O)[C@H](C(C)C)NC(=O)[C@H](Cc2c[nH]c3ccccc23)NC(=O)[C@H](CC(=O)O)NC(=O)[C@H](Cc2ccc(OCC(=O)O)cc2)NC(=O)[C@H](C(C)O)NC(=O)CSC[C@@H](C(=O)N[C@@H](CCCN)C(=O)N[C@@H](CCC(=O)NCCCCCCCCCCCC(=O)O)C(=O)O)NC(=O)[C@H](CO)NC(=O)[C@H](C(C)C)NC(=O)[C@H](CC2CCCCC2)NC(=O)[C@H](CCN)NC(=O)[C@@H](CC(C)C)NC(=O)[C@H](C)N(C)C1=O (stereo partly drawn) [Example 2047] ({CH2CO}-[Thr(3ξ)]Y(Carboxymethyl)DWV[Bip][Ile(3ξ)][NMeA][dL][Dab][Cha]VSC[Orn][γGlu][12Ado]-OH; thioether N-14) | 35.8
CC(C)C[C@@H]1NC(=O)[C@H](Cc2c[nH]c3ccccc23)NC(=O)[C@H](CC(=O)O)NC(=O)[C@H](Cc2ccncc2)NC(=O)[C@H](Cc2ccc(OCC(=O)O)cc2)NC(=O)CSC[C@@H](C(=O)NCCOCCOCC(=O)N[C@@H](CCCNC(N)=O)C(=O)NCCCCCCCCCCC(=O)O)NC(=O)[C@H](CCCNC(N)=O)NC(=O)[C@H](C(C)C)NC(=O)[C@H](CC2CCCCC2)NC(=O)[C@H](CCN)NC(=O)[C@@H](CC(C)C)NC(=O)[C@H](C)N(C)C(=O)[C@H](C(C)C)NC(=O)[C@H](Cc2ccc(-c3ccccc3)cc2)NC1=O [Example 2174] ({CH2CO}-Y(Carboxymethyl)[4Pal]DWL[Bip]V[NMeA][dL][Dab][Cha]V[Cit]C[AEEA][Cit][Aun]-OH; thioether N-14) | 16.4
Cc1cccc(C[C@@H]2NC(=O)[C@H](CC(=O)O)NC(=O)[C@H](Cc3ccc(OCC(=O)O)cc3)NC(=O)[C@H]([C@@H](C)O)NC(=O)CSC[C@@H](C(=O)N[C@@H](CCN)C(=O)NCCCCCCCCCCC(=O)O)NC(=O)[C@H](CCC(=O)O)NC(=O)[C@H](C(C)C)NC(=O)[C@H](CC3CCCCC3)NC(=O)[C@H](CCN)NC(=O)[C@@H](CC(C)C)NC(=O)[C@H](C)N(C)C(=O)[C@H](Cc3ccc(OCC(=O)O)cc3)NC(=O)[C@H](Cc3ccc(-c4ccccc4)cc3)NC(=O)[C@H](Cc3ccc(OCC(=O)O)cc3)NC2=O)c1 [Example 1422] ({CH2CO}-TY(Carboxymethyl)D[Phe(3-Me)]Y(Carboxymethyl)[Bip]Y(Carboxymethyl)[NMeA][dL][Dab][Cha]VEC[Dab][Aun]-OH; thioether N-14) | 20.2
CC(C)C[C@@H]1NC(=O)[C@H](Cc2c[nH]c3ccccc23)NC(=O)[C@H](CC(=O)O)NC(=O)[C@H](Cc2ccc(C(=O)O)cc2)NC(=O)[C@H](Cc2ccc(OCC(=O)O)cc2)NC(=O)CSC[C@@H](C(=O)N[C@@H](CCCN)C(=O)NCCOCCOCC(=O)NCCCCCCCCCCC(=O)O)NC(=O)[C@H](CCCCN)NC(=O)[C@H](C(C)C)NC(=O)[C@H](CC2CCCCC2)NC(=O)[C@H](CC(=O)O)NC(=O)[C@@H](CC(C)C)NC(=O)[C@H](C)N(C)C(=O)[C@H](C(C)C)NC(=O)[C@H](Cc2ccc(-c3ccccc3)cc2)NC1=O [Example 2136] ({CH2CO}-Y(Carboxymethyl)[Phe(4-COOH)]DWL[Bip]V[NMeA][dL]D[Cha]VKC[Orn][AEEA][Aun]-OH; thioether N-14) | 143

same assay, conditions: PE-labeled PD-L1-Ig 20 nM final, Jurkat-hPD-1 cells; read-out: Jurkat HPD1 PDL1 IC50

SMILES | IC50 [nM]
CC(=O)NCCCC[C@@H]1NC(=O)[C@H](C(C)C)NC(=O)[C@H](CC2CCCCC2)NC(=O)[C@H](CCN)NC(=O)[C@@H](CC(C)C)NC(=O)[C@H](C)N(C)C(=O)[C@H](CCC(N)=O)NC(=O)[C@H](Cc2ccc(-c3ccccc3)cc2)NC(=O)[C@H](Cc2ccc(C(=O)O)cc2)NC(=O)[C@H](Cc2cccc(C(F)(F)F)c2)NC(=O)[C@H](CC(=O)O)NC(=O)[C@H](Cc2ccc(OCC(=O)O)cc2)NC(=O)[C@H](Cc2ccc(OCC(=O)O)cc2)NC(=O)CSC[C@@H](C(=O)N[C@@H](CCN)C(=O)NCCOCCOCC(=O)NCCCCCCCCCCC(=O)O)NC1=O [Example 2598] ({CH2CO}-Y(Carboxymethyl)Y(Carboxymethyl)D[Phe(3-CF3)][Phe(4-COOH)][Bip]Q[NMeA][dL][Dab][Cha]VK(Ac)C[Dab][AEEA][Aun]-OH; thioether N-14) | 2.8
CC(C)C[C@@H]1NC(=O)[C@H](Cc2c[nH]c3ccccc23)NC(=O)[C@H](CC(=O)O)NC(=O)[C@H](Cc2ccc(OCC(=O)O)cc2)NC(=O)[C@H](Cc2ccc(OCC(=O)O)cc2)NC(=O)CSC[C@@H](C(=O)NCCOCCOCC(=O)NCCCCCCCCCCC(=O)O)NC(=O)[C@H](CCCNC(N)=O)NC(=O)[C@H](C(C)(C)O)NC(=O)[C@H](CC2CCCCC2)NC(=O)[C@H](CCN)NC(=O)[C@@H](CC(C)C)NC(=O)[C@H](C)N(C)C(=O)[C@H](C(C)C)NC(=O)[C@H](Cc2ccc(-c3ccccc3)cc2)NC1=O [Example 2458] ({CH2CO}-Y(Carboxymethyl)Y(Carboxymethyl)DWL[Bip]V[NMeA][dL][Dab][Cha][Val(3-OH)][Cit]C[AEEA][Aun]-OH; thioether N-14) | 22.1
Cc1cccc(C[C@@H]2NC(=O)[C@H](CC(=O)O)NC(=O)[C@H](Cc3ccc(C(=O)O)cc3)NC(=O)[C@H](Cc3ccsc3)NC(=O)CSC[C@@H](C(=O)N[C@@H](CCN)C(=O)NCCOCCOCC(=O)NCCCCCCCCCCC(=O)O)NC(=O)[C@H](CCC(=O)O)NC(=O)[C@H](C(C)(C)O)NC(=O)[C@H](CC3CCCCC3)NC(=O)[C@H](CCN)NC(=O)[C@@H](CC(C)C)NC(=O)[C@H](C)N(C)C(=O)[C@H](Cc3ccc(OCC(=O)O)cc3)NC(=O)[C@H](Cc3ccc(-c4ccccc4)cc3)NC(=O)[C@H](Cc3ccc(OCC(=O)O)cc3)NC2=O)c1 [Example 2505] ({CH2CO}-[3Thi][Phe(4-COOH)]D[Phe(3-Me)]Y(Carboxymethyl)[Bip]Y(Carboxymethyl)[NMeA][dL][Dab][Cha][Val(3-OH)]EC[Dab][AEEA][Aun]-OH; thioether N-14) | 12.9
Cc1cccc(C[C@@H]2NC(=O)[C@H](CC(=O)O)NC(=O)[C@H](Cc3ccc(C(=O)O)cc3)NC(=O)[C@H](Cc3ccc(F)cc3)NC(=O)CSC[C@@H](C(=O)N[C@@H](CCN)C(=O)NCCOCCOCC(=O)NCCOCCOCC(=O)NCCCCCCCCCCC(=O)O)NC(=O)[C@H](CCC(=O)O)NC(=O)[C@H](C(C)C)NC(=O)[C@H](CC3CCCCC3)NC(=O)[C@H](CCN)NC(=O)[C@@H](CC(C)C)NC(=O)[C@H](C)N(C)C(=O)[C@H](Cc3ccc(C(=O)O)cc3)NC(=O)[C@H](Cc3ccc(-c4ccccc4)cc3)NC(=O)[C@H](Cc3ccc(C(=O)O)cc3)NC2=O)c1 [Example 2542] ({CH2CO}-[Phe(4-F)][Phe(4-COOH)]D[Phe(3-Me)][Phe(4-COOH)][Bip][Phe(4-COOH)][NMeA][dL][Dab][Cha]VEC[Dab][AEEA][AEEA][Aun]-OH; thioether N-14) | 2.4
